Experimental data reported in article doi:10.1101/2025.03.10.642353v1, “Deciphering the role of histo-blood group antigens in bovine rotavirus C infection” (biorxiv, 2025).

Target: T1, bovine P[3] RVC VP8* (Bovine rotavirus C, UniProt L0N4C6)
T1 construct: gene VP4; VP8* galectin-like domain of polyprotein-like spike VP4 (trypsin-cleaved), residues 64-228 (E64-R228), synthetic codon-optimised gene, pGEX-2T N-terminal GST, E. coli BL21(DE3)
Assay: STD NMR (binding epitope mapping)
Details: PBS in D2O, pH 7.4, 278 K; 50 uM protein, 2 mM ligand; both anomers of reducing GlcNAc
Excerpt: STD NMR (binding epitope mapping) on bovine P[3]

**Q.** For CC(=O)N[C@H]1C(O)O[C@H](CO)[C@@H](O[C@@H]2O[C@H](CO)[C@H](O)[C@H](O)[C@H]2O[C@@H]2O[C@@H](C)[C@@H](O)[C@@H](O)[C@@H]2O)[C@@H]1O (stereo partly drawn) [H2, Fuc-α1,2-Gal-β1,4-GlcNAc], which “STD NMR (binding epitope mapping)” value is on record?
**A.** All performed STD NMR experiments showed clear signals confirming the binding of H2 antigen
